Data taken from patent publication US20240158446A1, “CYCLIC COMPOUND HAVING SELECTIVE INHIBITORY ACTION ON KRAS OVER HRAS AND NRAS” (CHUGAI SEIYAKU KABUSHIKI KAISHA, priority 2021, published 2024).

Key:
[1] = molecular target: GDP-bound HRAS wild-type protein (Homo sapiens, UniProt P01112); assay: Binding to HRAS by surface plasmon resonance (SPR), Single Cycle Kinetics; settings: SPR; GDP-bound HRAS wild-type protein vs GDP-bound KRAS wild-type protein; KD ratio class
[2] = tested on: human lung cancer strain NCI-H441;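 also: cell proliferation inhibition after four days measured by CellTiter-Glo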
[3] = molecular target: GDP-bound NRAS wild-type protein (Homo sapiens, UniProt P01111); assay: Binding to NRAS by surface plasmon resonance (SPR), Single Cycle Kinetics; settings: SPR; GDP-bound NRAS wild-type protein vs GDP-bound KRAS wild-type protein; KD ratio class
GDP-bound NRAS wild-type protein, sequence (P01111 whole entry): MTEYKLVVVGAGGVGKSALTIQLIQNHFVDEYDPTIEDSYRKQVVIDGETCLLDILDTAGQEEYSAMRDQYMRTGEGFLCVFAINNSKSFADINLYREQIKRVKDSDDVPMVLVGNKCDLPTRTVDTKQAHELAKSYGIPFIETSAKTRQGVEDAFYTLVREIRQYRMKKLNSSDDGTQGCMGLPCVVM

[4] = molecular target: GDP-bound KRAS wild-type protein (Homo sapiens, UniProt P01116); assay: Binding to KRAS by surface plasmon resonance (SPR), Single Cycle Kinetics; settings: SPR, Single Cycle Kinetics, 1:1 binding model; GDP-bound KRAS wild-type protein; read-out: KRAS KD
GDP-bound KRAS wild-type protein, sequence (P01116 whole entry): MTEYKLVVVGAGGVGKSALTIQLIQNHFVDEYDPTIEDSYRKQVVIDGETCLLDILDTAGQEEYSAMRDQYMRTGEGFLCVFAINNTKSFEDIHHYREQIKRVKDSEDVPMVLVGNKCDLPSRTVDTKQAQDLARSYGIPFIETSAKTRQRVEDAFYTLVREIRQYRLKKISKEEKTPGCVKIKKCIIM

GDP-bound HRAS wild-type protein, sequence (P01112 whole entry): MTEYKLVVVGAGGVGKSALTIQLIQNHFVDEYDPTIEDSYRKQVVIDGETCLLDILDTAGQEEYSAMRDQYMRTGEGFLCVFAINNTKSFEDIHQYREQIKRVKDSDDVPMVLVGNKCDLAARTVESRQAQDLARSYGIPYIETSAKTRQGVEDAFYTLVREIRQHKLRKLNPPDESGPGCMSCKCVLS

Row | Compound | HRAS/KRAS (ratio of KD value for HRAS to KD value for KRAS) [1] | IC50 [2] | NRAS/KRAS (ratio of KD value for NRAS to KD value for KRAS) [3] | Kd [4]
1 | CCO[C@@H]1C[C@H]2C(=O)NC3(CCC3)C(=O)N(C)[C@@H](C3CCCC3)C(=O)N(C)[C@H](C(=O)N3CCOCC3)CC(=O)N(C)[C@@H](CC3CCC3)C(=O)N[C@@H]([C@@H](C)CC)C(=O)N(C)CC(=O)N(C)[C@H]3C/C=C\CCN(C3=O)[C@@H](Cc3ccc(C)cc3)C(=O)N(C)CC(=O)N[C@@H](CCc3cc(F)c(C(F)(F)F)c(F)c3)C(=O)N2C1 [PP1424] | A (a compound having 10 or more and less than 20 is denoted as A) | 26.3 nM | A (a compound having 10 or more and less than 20 is denoted as A) | 0.23 nM
2 | CCO[C@@H]1C[C@H]2C(=O)NC3(CCC3)C(=O)N(C)[C@@H](C3CCCC3)C(=O)N(C)[C@H](C(=O)N3CCCC3)CC(=O)N(C)[C@@H](CC3CCC3)C(=O)N[C@@H]([C@@H](C)CC)C(=O)N(C)CC(=O)N(C)[C@H]3C/C=C\CCN(C3=O)[C@@H](Cc3ccc(C)cc3)C(=O)N(C)CC(=O)N[C@@H](CCc3cc(F)c(C(F)(F)F)c(F)c3)C(=O)N2C1 [PP1425] | B (a compound having 3 or more and less than 10 is denoted as B) | 20.2 nM | A (a compound having 10 or more and less than 20 is denoted as A) | 0.24 nM
3 | CCO[C@@H]1C[C@H]2C(=O)NC3(CCC3)C(=O)N(C)[C@@H](C3CCCC3)C(=O)N(C)[C@H](C(=O)N(C)C)CC(=O)N(C)[C@@H](CC3CC3)C(=O)N[C@@H]([C@@H](C)CC)C(=O)N(C)CC(=O)N(C)[C@H]3C/C=C\CCN(C3=O)[C@@H](Cc3ccc(F)cc3)C(=O)N(C)CC(=O)N[C@@H](CCc3ccc4sccc4c3)C(=O)N2C1 [PP1426] | B (a compound having 3 or more and less than 10 is denoted as B) | 475 nM | A (a compound having 10 or more and less than 20 is denoted as A) | 1 nM
4 | CCO[C@@H]1C[C@H]2C(=O)NC3(CCC3)C(=O)N(C)[C@@H](C3CCCC3)C(=O)N(C)[C@H](C(=O)N(C)C)CC(=O)N(C)[C@@H](CC(C)C)C(=O)N[C@@H]([C@@H](C)CC)C(=O)N(C)CC(=O)N(C)[C@H]3C/C=C\CCN(C3=O)[C@@H](Cc3ccc(F)cc3)C(=O)N(C)CC(=O)N[C@@H](CCc3ccc4sccc4c3)C(=O)N2C1 [PP1427] | B (a compound having 3 or more and less than 10 is denoted as B) | 465 nM | A (a compound having 10 or more and less than 20 is denoted as A) | 0.99 nM
5 | CCO[C@@H]1C[C@H]2C(=O)NC3(CCC3)C(=O)N(C)[C@@H](C(CC)CC)C(=O)N(C)[C@H](C(=O)N(C)C)CC(=O)N(C)[C@@H](CC3CC3)C(=O)N[C@@H]([C@@H](C)CC)C(=O)N(C)CC(=O)N(C)[C@H]3C/C=C\CCN(C3=O)[C@@H](CC3CCCCC3)C(=O)N(C)CC(=O)N[C@@H](CCc3cc(F)c(C(F)(F)F)c(F)c3)C(=O)N2C1 [PP1428] | A (a compound having 10 or more and less than 20 is denoted as A) | 38.8 nM | AA (a compound having 20 or more is denoted as AA) | 0.87 nM
6 | CCO[C@@H]1C[C@H]2C(=O)NC3(CCC3)C(=O)N(C)[C@@H](C(CC)CC)C(=O)N(C)[C@H](C(=O)N(C)C)CC(=O)N(C)[C@@H](CC3CC3)C(=O)N[C@@H]([C@@H](C)CC)C(=O)N(C)CC(=O)N(C)[C@H]3C/C=C\CCN(C3=O)[C@@H](CC3CCC(F)(F)CC3)C(=O)N(C)CC(=O)N[C@@H](CCc3cc(F)c(C(F)(F)F)c(F)c3)C(=O)N2C1 [PP1429] | A (a compound having 10 or more and less than 20 is denoted as A) | 38.7 nM | AA (a compound having 20 or more is denoted as AA) | 0.52 nM
7 | CCO[C@@H]1C[C@H]2C(=O)NC3(CCC3)C(=O)N(C)[C@@H](C(CC)CC)C(=O)N(C)[C@H](C(=O)N(C)C)CC(=O)N(C)[C@@H](CC3CCCC3)C(=O)N[C@@H]([C@@H](C)CC)C(=O)N(C)CC(=O)N(C)[C@H]3C/C=C\CCN(C3=O)[C@@H](CC3CCCCC3)C(=O)N(C)CC(=O)N[C@@H](CCc3cc(F)c(C(F)(F)F)c(F)c3)C(=O)N2C1 [PP1430] | A (a compound having 10 or more and less than 20 is denoted as A) | 70.4 nM | A (a compound having 10 or more and less than 20 is denoted as A) | 0.85 nM
8 | CCO[C@@H]1C[C@H]2C(=O)NC3(CCC3)C(=O)N(C)[C@@H](C(CC)CC)C(=O)N(C)[C@H](C(=O)N(C)C)CC(=O)N(C)[C@@H](CC3CCCC3)C(=O)N[C@@H]([C@@H](C)CC)C(=O)N(C)CC(=O)N(C)[C@H]3C/C=C\CCN(C3=O)[C@@H](CC3CCC(F)(F)CC3)C(=O)N(C)CC(=O)N[C@@H](CCc3cc(F)c(C(F)(F)F)c(F)c3)C(=O)N2C1 [PP1431] | A (a compound having 10 or more and less than 20 is denoted as A) | 41.2 nM | AA (a compound having 20 or more is denoted as AA) | 0.57 nM
9 | CCO[C@@H]1C[C@H]2C(=O)NC3(CCC3)C(=O)N(C)[C@@H](C(CC)CC)C(=O)N(C)[C@H](C(=O)N(C)C)CC(=O)N(C)[C@@H](CC(C)C)C(=O)N[C@@H]([C@@H](C)CC)C(=O)N(C)CC(=O)N(C)[C@H]3C/C=C\CCN(C3=O)[C@@H](CC3CCCCC3)C(=O)N(C)CC(=O)N[C@@H](CCc3cc(F)c(C(F)(F)F)c(F)c3)C(=O)N2C1 [PP1432] | A (a compound having 10 or more and less than 20 is denoted as A) | 51.3 nM | AA (a compound having 20 or more is denoted as AA) | 0.61 nM
10 | CCO[C@@H]1C[C@H]2C(=O)NC3(CCC3)C(=O)N(C)[C@@H](C(CC)CC)C(=O)N(C)[C@H](C(=O)N(C)C)CC(=O)N(C)[C@@H](CC(C)C)C(=O)N[C@@H]([C@@H](C)CC)C(=O)N(C)CC(=O)N(C)[C@H]3C/C=C\CCN(C3=O)[C@@H](CC3CCC(F)(F)CC3)C(=O)N(C)CC(=O)N[C@@H](CCc3cc(F)c(C(F)(F)F)c(F)c3)C(=O)N2C1 [PP1433] | A (a compound having 10 or more and less than 20 is denoted as A) | 44.4 nM | AA (a compound having 20 or more is denoted as AA) | 0.46 nM
11 | CCO[C@@H]1C[C@H]2C(=O)NC3(CCC3)C(=O)N(C)[C@@H](C(CC)CC)C(=O)N(C)[C@H](C(=O)N3CCCC3)CC(=O)N(C)[C@@H](C)C(=O)N[C@@H]([C@@H](C)CC)C(=O)N(C)CC(=O)N(C)[C@H]3C/C=C\CCN(C3=O)[C@@H](CC3CCCCC3)C(=O)N(C)CC(=O)N[C@@H](CCc3cc(F)c(C(F)(F)F)c(F)c3)C(=O)N2C1 [PP1434] | A (a compound having 10 or more and less than 20 is denoted as A) | 112 nM | A (a compound having 10 or more and less than 20 is denoted as A) | 0.69 nM
12 | CCO[C@@H]1C[C@H]2C(=O)NC3(CCCC3)C(=O)N(C)[C@@H](C(CC)CC)C(=O)N(C)[C@H](C(=O)N3CCCC3)CC(=O)N(C)[C@@H](C)C(=O)N[C@@H]([C@@H](C)CC)C(=O)N(C)CC(=O)N(C)[C@H]3C/C=C\CCN(C3=O)[C@@H](CC3CCCCC3)C(=O)N(C)CC(=O)N[C@@H](CCc3cc(F)c(C(F)(F)F)c(F)c3)C(=O)N2C1 [PP1435] | A (a compound having 10 or more and less than 20 is denoted as A) | 178 nM | A (a compound having 10 or more and less than 20 is denoted as A) | 1.1 nM
13 | CCO[C@@H]1C[C@H]2C(=O)NC3(CCC3)C(=O)N(C)[C@@H](C(CC)CC)C(=O)N(C)[C@H](C(=O)N3CCCC3)CC(=O)N(C)[C@@H](C)C(=O)N[C@@H]([C@@H](C)CC)C(=O)N(C)CC(=O)N(C)[C@H]3C/C=C\CCN(C3=O)[C@@H](CC3CCC(F)(F)CC3)C(=O)N(C)CC(=O)N[C@@H](CCc3cc(F)c(C(F)(F)F)c(F)c3)C(=O)N2C1 [PP1436] | A (a compound having 10 or more and less than 20 is denoted as A) | 47.4 nM | AA (a compound having 20 or more is denoted as AA) | 0.29 nM
14 | CCO[C@@H]1C[C@H]2C(=O)NC3(CCCC3)C(=O)N(C)[C@@H](C(CC)CC)C(=O)N(C)[C@H](C(=O)N3CCCC3)CC(=O)N(C)[C@@H](C)C(=O)N[C@@H]([C@@H](C)CC)C(=O)N(C)CC(=O)N(C)[C@H]3C/C=C\CCN(C3=O)[C@@H](CC3CCC(F)(F)CC3)C(=O)N(C)CC(=O)N[C@@H](CCc3cc(F)c(C(F)(F)F)c(F)c3)C(=O)N2C1 [PP1437] | A (a compound having 10 or more and less than 20 is denoted as A) | 220 nM | A (a compound having 10 or more and less than 20 is denoted as A) | 0.61 nM
15 | CCO[C@@H]1C[C@H]2C(=O)NC3(CCC3)C(=O)N(C)[C@@H](C(CC)CC)C(=O)N(C)[C@H](C(=O)N3CCCC3)CC(=O)N(C)[C@@H](COC)C(=O)N[C@@H]([C@@H](C)CC)C(=O)N(C)CC(=O)N(C)[C@H]3C/C=C\CCN(C3=O)[C@@H](CC3CCCCC3)C(=O)N(C)CC(=O)N[C@@H](CCc3cc(F)c(C(F)(F)F)c(F)c3)C(=O)N2C1 [PP1438] | A (a compound having 10 or more and less than 20 is denoted as A) | 89.4 nM | AA (a compound having 20 or more is denoted as AA) | 0.55 nM
